Article PMC8464850, “Sulfonium Ligands of the α7 nAChR” (Molecules, 2021)

Columns and labels:
[1] = molecular target: T1, muscle-type (α1β1εδ) receptors (Mus musculus, UniProt P02716+P04756+P20782); settings: cited from earlier work
T1 construct: expressed in transfected cells; host or cells: Xenopus laevis oocytes (injected RNA)

α7 nAChR [2] = molecular target: T2, α7 nAChR (Homo sapiens, UniProt P36544); test: α7 responses on co-application with the type II PAM TQS (silent agonism); type: cell-based
T2 construct: expressed in transfected cells; host or cells: Xenopus laevis oocytes (injected RNA)
T2 sequence (P36544 23-502): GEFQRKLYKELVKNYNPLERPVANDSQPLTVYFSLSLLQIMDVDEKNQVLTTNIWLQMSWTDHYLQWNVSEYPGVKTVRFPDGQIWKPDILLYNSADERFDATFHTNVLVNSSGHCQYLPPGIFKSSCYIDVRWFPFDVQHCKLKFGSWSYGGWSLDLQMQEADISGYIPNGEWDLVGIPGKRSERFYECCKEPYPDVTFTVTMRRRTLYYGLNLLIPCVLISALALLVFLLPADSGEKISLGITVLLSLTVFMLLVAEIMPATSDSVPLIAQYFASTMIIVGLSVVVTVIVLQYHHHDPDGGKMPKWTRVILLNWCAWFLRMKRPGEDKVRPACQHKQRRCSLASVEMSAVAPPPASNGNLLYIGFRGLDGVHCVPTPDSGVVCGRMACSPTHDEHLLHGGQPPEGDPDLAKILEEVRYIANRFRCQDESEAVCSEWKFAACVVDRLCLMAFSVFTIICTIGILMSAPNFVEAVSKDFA
Method: (§1) Compounds were co-applied at a concentration of 100 µM with 30 µM racemic TQS (Figure 3A). All compounds except S4, S5, and S8 gave large responses when co-applied with TQS, consistent with silent agonism of α7 (see Table S1 for ANOVA). Active compounds were also evaluated across a range of concentrations with the alternative PAM, PNU-120596 (Figure 3B). The curve-fit values for Imax (Table 1) should be taken only as approximation of the relative efficacies of the compounds, due to the large variability frequently observed in PNU-120596-potentiated responses, as evidenced by the large SEMs of the responses obtained with high concentrations.
(§2) Figure 3 Responses of α7 nAChR to sulfonium compounds coapplied with PAMs. (A) Potentiation of α7 responses with 30 µM racemic TQS. Shown are the average net-charge responses of seven or eight oocytes ± SEM. (B) Concentration-response studies of peak currents generated by compounds that gave positive responses with TQS, coapplied with 10 µM PNU-120596. Each point represents the average (±SEM) of at least four oocytes.
The human nAChR clones were obtained from Jon Lindstrom (University of Pennsylvania, Philadelphia, PA, USA). Mouse muscle subunit clones were obtained from Jim Boulter (Salk Institute, La Jolla, CA, USA) and Paul Gardner (Dartmouth, Hanover, NH, USA). The human resistance-to-cholinesterase 3 (RIC3) clone was obtained from Millet Treinin (Hebrew University, Jerusalem, Israel) and co-injected with α7 to improve the level and speed of α7 receptor expression without affecting the pharmacological properties of the receptors. Subsequent to linearization and purification of the plasmid DNAs, RNAs were prepared using the mMessage mMachine in vitro RNA transcription kit (Ambion, Austin, TX, USA).
(§3) Experiments were conducted using OpusXpress 6000A (Molecular Devices, Union City, CA, USA). Both the voltage and current electrodes were filled with 3 M KCl. Oocytes were voltage-clamped at −60 mV at room temperature (24 °C). The oocytes were bath-perfused with Ringer’s solution (115 mM NaCl, 2.5 mM KCl, 1.8 mM CaCl2, 10 mM HEPES, and 1 μM atropine, pH 7.2) at 2 mL/min for α7 receptors, or 4 mL/min for heteromeric nAChR. To evaluate the effects of experimental compounds, responses were compared to control ACh-evoked responses, defined as the average of two initial applications of ACh made before test applications. ACh control concentrations were 60 µM for α7 receptors; 100 µM for α4(3)β2(2) and α3β4 receptors; 30 µM for α4β2α6β2β3 and muscle-type (αβ1εδ) receptors; and 10 µM for α4(3)β2(2) and α4(2)β2(2)α5 receptors.
(§4) Solutions were applied from 96-well plates via disposable tips. Drug applications were 12 s in duration, followed by 181 s washout periods for α7 receptors, or 6 s in duration followed by 301 s washout periods for heteromeric nAChR. The responses were calculated as both peak current amplitudes and net charge, as previously described. Data were collected at 50 Hz, filtered at 20 Hz for α7 receptors or filtered at 5 Hz for heteromeric nAChR, and analyzed by Clampfit (Molecular Devices, San Jose, CA, USA) and Excel (Microsoft, Redmond, WA, USA). Data were expressed as means ± SEM from at least four oocytes for each experiment and plotted with Kaleidagraph 4.5.2 (Abelbeck Software, Reading, PA, USA). Multi-cell averages were calculated for comparisons of complex responses. Averages of the normalized data were calculated for each of the 10,322 points in each of the 206.44 s traces (acquired at 50 Hz), as well as the standard errors for those averages.

α7 nAChR [3] = molecular target: T2, α7 nAChR; test: Inhibition of α7 ACh-evoked responses; type: cell-based
Method: Figure 4 Effects sulfonium compounds on α7 ACh-evoked net-charge responses. (A) Effects of the sulfonium compounds at 100 µM co-applied with 60 µM relative to responses to 60 µM ACh applied alone. Data are the averages (±SEM) from seven or eight cells under each condition. (B) Effects of select sulfonium compounds at 1 mM co-applied with 60 µM relative to responses to 60 µM ACh applied alone. Data are the averages (±SEM) from seven or eight cells under each condition. Statistical significance was determined by pairwise t-test with p values corrected for multiple comparisons; * p < 0.05, ** p < 0.001.
The sulfonium compounds that were active with TQS but produced little inhibition of ACh response at a concentration of 100 µM were tested as inhibitors of ACh response at a concentration of 1 mM (Figure 4B).
We tested S8 across a range of concentrations for its ability to inhibit 60 µM ACh responses (Figure 5A). Note that we use 60 µM as an ACh control because this concentration gives nearly maximal (93%) net-charge responses, with the time course of the responses roughly following the speed of solution exchange. […] We tested whether inhibition of α7 responses by S8 was surmountable by increasing ACh concentration, consistent with a competitive mechanism of inhibition. However, since α7 responses to concentrations of ACh greater than 60 µM occur more rapidly than solution exchange in the chamber, we first pre-applied 5 µM S8 prior to the co-application of 5 µM S8 with either 60 µM or 1 mM ACh (Figure 5B). The 60 µM net-charge responses were reduced to 28 ± 2% of controls (n = 8) and 60 µM peak currents to 21 ± 3 % controls. The 1 mM net-charge responses were reduced to 56 ± 6 % of those obtained without S8 co-application, although the S8 co-application increased the peak-current amplitudes compared to 60 µM controls from 1.78 ± 0.15 to 3.72 ± 0.81 (n = 8).
Figure 5 Inhibition of α7 ACh-evoked responses by S8. (A) Concentration-response studies of α7 net-charge responses to 60 µM ACh co-applied with increasing concentrations of S8. To confirm the stability of the ACh responses, applications of ACh plus S8 were alternated with applications of ACh alone. Data are the averages of eight cells (±SEM). See text for curve-fit values. (B) Effects of 5 µM S8 on responses to either 60 µM or 1 mM ACh. The traces shown across the top are the averaged raw data from seven cells, each normalized to the peak current of the first ACh control response shown. In order to assure that the S8 was present at 5 µM throughout the ACh-evoked responses, a 30 s pre-application was made of 5 µM S8 alone. The lower traces show averaged responses to 60 µM or 1 mM ACh alone or with the 5 µM S8 pre- and co-application. The details of the data are described in Methods.
as §3
Solutions were applied from 96-well plates via disposable tips. Drug applications were 12 s in duration, followed by 181 s washout periods for α7 receptors, or 6 s in duration followed by 301 s washout periods for heteromeric nAChR. […]

[4] = design: method as in PMID 11456386; settings: cited from earlier work
α7 nAChR [5] = molecular target: T2, α7 nAChR; test: α7 concentration-response on co-application with 10 µM PNU-120596; type: cell-based; settings: peak currents, co-applied with 10 µM PNU-120596, Hill fit
Method: as §1, §2, §3, §4

ganglionic (α3β4) nAChR = tested on: ganglionic (α3β4) nAChR; design: method as in earlier work; settings: 100 µM suplatast; ref 29 (Zhou et al.); cited from earlier work
α3β4 nAChR = molecular target: T3, α3β4 nAChR (Homo sapiens, UniProt P30926+P32297); test: Inhibition of α3β4 100 µM ACh-evoked peak currents; type: cell-based
T3 construct: expressed in transfected cells; host or cells: Xenopus laevis oocytes (injected RNA)
T3 sequence (P32297 32-505): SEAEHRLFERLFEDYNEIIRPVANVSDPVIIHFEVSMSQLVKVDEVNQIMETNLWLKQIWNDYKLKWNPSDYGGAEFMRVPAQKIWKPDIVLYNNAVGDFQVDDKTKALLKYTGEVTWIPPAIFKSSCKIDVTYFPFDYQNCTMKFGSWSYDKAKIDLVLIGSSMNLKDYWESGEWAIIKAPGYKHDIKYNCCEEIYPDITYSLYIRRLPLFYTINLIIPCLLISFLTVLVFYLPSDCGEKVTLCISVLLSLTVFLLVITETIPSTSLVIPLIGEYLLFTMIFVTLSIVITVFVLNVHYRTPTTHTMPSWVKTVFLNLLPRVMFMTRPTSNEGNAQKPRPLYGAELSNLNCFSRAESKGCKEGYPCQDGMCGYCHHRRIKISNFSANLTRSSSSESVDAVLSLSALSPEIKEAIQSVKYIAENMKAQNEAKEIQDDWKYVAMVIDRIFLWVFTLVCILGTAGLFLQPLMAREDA
T3 sequence (P30926 22-498): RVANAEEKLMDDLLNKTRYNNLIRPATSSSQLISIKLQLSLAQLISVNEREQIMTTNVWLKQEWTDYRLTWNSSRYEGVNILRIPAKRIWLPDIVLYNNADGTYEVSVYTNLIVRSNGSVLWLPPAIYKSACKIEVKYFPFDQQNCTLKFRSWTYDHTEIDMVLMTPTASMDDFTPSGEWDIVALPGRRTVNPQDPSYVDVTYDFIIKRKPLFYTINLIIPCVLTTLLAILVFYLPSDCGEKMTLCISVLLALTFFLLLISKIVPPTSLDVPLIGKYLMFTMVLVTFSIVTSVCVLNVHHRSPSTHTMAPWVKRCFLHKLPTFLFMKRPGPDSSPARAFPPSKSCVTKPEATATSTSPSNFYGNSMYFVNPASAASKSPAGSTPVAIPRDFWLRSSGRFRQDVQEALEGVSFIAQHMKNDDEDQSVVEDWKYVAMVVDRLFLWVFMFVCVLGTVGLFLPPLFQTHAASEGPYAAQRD
Method: Although none of the other sulfonium compounds activated neuronal heteromeric receptors, several of them produced inhibition of ACh-evoked responses. Shown in Figure 7A are concentration-response studies for the compounds that were active antagonists of α3β4 nAChR (Table 3). Some compounds were also tested as antagonists of α4β2 subtypes formed with concatamers (Figure 7B).
Figure 7 Inhibition of heteromeric nAChR by sulfonium compounds. (A) Inhibition of α3β4 100 µM ACh-evoked peak currents by the co-application of the sulfonium compounds. Data are the averaged of six to eight oocytes (±SEM). To confirm the stability of the ACh responses, applications of ACh plus the sulfonium compounds were alternated with applications of ACh alone. (B) Inhibition of ACh control peak-current responses of α4-containing nAChR formed with concatamers by 100 µM of the sulfonium compounds indicated. Data are the average of six to eight oocytes (±SEM).
as §3, §4

α7 = settings: alone and co-applied with an α7 PAM; cited from earlier work
human α7 receptors = molecular target: T4, human α7 receptors (Homo sapiens, UniProt P36544); design: method as in PMID 12183330; settings: 60 µM ACh; cited from earlier work
T4 construct: expressed in transfected cells; host or cells: Xenopus laevis oocytes (injected RNA)
T4 sequence (P36544 23-502): as the sequence (P36544 23-502) above

[6] = general knowledge, no reference given; cited from earlier work

T1 sequence (P04756 21-457): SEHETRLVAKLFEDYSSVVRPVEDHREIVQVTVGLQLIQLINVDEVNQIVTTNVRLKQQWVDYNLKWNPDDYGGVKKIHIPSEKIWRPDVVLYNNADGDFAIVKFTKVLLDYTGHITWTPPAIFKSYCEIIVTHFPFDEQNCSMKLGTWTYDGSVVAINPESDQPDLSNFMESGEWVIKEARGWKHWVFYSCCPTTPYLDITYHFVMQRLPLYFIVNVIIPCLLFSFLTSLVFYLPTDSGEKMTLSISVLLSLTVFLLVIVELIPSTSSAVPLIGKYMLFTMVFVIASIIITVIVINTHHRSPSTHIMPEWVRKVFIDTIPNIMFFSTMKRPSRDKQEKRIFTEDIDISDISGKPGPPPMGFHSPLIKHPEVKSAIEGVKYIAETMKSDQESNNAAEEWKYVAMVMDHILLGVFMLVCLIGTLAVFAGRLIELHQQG
T1 sequence (P09690 24-501 partner): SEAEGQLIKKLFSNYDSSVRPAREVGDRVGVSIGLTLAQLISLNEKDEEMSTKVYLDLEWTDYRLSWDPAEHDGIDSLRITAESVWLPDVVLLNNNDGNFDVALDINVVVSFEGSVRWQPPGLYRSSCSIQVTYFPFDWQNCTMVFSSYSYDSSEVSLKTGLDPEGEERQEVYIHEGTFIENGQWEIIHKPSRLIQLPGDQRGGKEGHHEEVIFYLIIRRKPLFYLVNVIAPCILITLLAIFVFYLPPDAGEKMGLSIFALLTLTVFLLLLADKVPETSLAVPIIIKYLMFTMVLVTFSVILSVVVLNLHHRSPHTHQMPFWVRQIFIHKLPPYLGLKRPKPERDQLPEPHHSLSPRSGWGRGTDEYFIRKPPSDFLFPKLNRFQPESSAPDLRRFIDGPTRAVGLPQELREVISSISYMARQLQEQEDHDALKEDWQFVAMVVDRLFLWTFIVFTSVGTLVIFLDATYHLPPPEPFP
T1 sequence (P20782 21-493): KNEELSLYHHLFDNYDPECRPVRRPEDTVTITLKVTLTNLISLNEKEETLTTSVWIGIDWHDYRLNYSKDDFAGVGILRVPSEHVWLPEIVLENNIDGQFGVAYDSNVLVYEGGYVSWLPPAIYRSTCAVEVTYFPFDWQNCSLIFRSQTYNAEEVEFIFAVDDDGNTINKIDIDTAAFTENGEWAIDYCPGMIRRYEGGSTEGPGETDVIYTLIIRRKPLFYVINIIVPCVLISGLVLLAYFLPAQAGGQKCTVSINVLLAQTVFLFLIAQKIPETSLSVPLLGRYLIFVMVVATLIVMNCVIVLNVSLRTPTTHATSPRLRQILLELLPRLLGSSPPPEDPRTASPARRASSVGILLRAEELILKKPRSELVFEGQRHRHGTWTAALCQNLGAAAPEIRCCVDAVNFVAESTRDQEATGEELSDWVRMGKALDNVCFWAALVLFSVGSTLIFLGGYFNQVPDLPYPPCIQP
T1 sequence (P02716 25-520): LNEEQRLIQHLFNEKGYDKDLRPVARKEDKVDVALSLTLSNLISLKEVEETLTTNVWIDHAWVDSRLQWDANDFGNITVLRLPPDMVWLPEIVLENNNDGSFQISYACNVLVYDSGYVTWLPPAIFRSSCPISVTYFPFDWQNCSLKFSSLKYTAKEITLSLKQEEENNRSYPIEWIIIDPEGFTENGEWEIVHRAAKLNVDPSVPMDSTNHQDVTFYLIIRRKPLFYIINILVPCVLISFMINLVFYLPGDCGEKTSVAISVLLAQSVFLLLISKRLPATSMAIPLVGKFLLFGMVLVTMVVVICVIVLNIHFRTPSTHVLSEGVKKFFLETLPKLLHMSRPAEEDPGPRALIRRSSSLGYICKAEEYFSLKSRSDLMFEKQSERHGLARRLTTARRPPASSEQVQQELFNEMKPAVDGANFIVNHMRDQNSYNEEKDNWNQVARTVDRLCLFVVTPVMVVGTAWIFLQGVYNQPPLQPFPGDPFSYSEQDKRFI

In the case of C[N+](C)(C)C [TMA, tetramethylammonium ion], the “activation of muscle-type receptors” value [1] is listed as “not an effective activator”.
For CCOCC(O)COc1ccc(NC(=O)CC[S+](C)C)cc1.Cc1ccc(S(=O)(=O)[O-])cc1 (stereo not drawn) [Compound S6, (3-((4-(3-ethoxy-2-hydroxypropoxy)phenyl)amino)-3-oxopropyl)dimethylsulfonium tosylate, reference compound], the “relative activity as α7 silent agonist / desensitizer (rank order)” value (α7 nAChR [2]; 100 µM with 30 µM TQS, Figure 3A, listed as suplatast) was “most desensitizing”, the “α7 functional classification (silent agonist / inactive)” value (α7 nAChR [2]; inactive alone, active with a PAM = silent agonist) was “silent agonist activity” and the inhibition at 100 µM (α7 nAChR [3]; compound co-applied at 100 µM, net charge, read-out: inhibition of responses to 60 µM ACh) was about 50%. The “distribution to the brain” value [4] was “poor”, the oral bioavailability [4] was “orally bioavailable” and the “IMax (PNU Activation)” value (α7 nAChR [5]; approximation only) was 2.2 ± 0.3. The EC50 (α7 nAChR [5]; read-out: EC50 (PNU Activation)) was 12.5 ± 4.9 µM, the “effect on ganglionic (α3β4) nAChR” value (ganglionic (α3β4) nAChR) was “channel block” and the “surmountability of α3β4 inhibition by ACh” value (α3β4 nAChR; 5 µM S6, 1 mM ACh vs 30 µM ACh, data not shown) was “not surmountable by increasing ACh concentration”. The IC50 (α3β4 nAChR; co-application with 100 µM ACh, peak currents) was 4.5 ± 0.6 µM.
In the case of CC[S+]1CCN(c2ccccc2)CC1.O=S(=O)([O-])C(F)(F)F [1-ethyl-4-phenylthiomorpholin-1-ium trifluoromethanesulfonate], the “behaviour at α7” value (α7) is listed as “inactive when applied alone but active when co-applied with an α7 PAM”.
In the case of CC(=O)OCC[N+](C)(C)C [ACh, Acetylcholine chloride, reference compound], the “1 mM ACh peak-current amplitudes compared to 60 µM controls” value (α7 nAChR [3]; 1 mM ACh without S8, n = 8) is given as 1.78 ± 0.15 and the “net-charge response as share of maximal” value (human α7 receptors) is given as 93%.
For O=[N+]([O-])c1ccc(O)cc1 [para-nitrophenol], the “pKa for the phenolic hydroxyl” value [6] is given as ~ 7.
